Kd and EC50 data for 16 compounds are collected here from patent publication US10947252B2, “Inhibitors of KEAP1-Nrf2 protein-protein interaction” (Janssen Pharmaceutica NV, priority 2018, dated 2021).

The target of assay [1] is Kelch domain of human KEAP1 (321-624 aa) (Homo sapiens (Human), UniProt Q14145). The assay can be described thus: KEAP1 KELCH ThermoFluor binding assay.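 Note: Ligand-induced melting temperature shift of E. coli-expressed KEAP1 Kelch protein, Kd estimated from concentration-response curves of ΔTm.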 As to conditions: KEAP Kelch […], 1,8-ANS, pH 7.0, average of results obtained, read-out: Tf Kd.
Assay [2] concerns Glo-Response ARE-luc2P HEK293 cell line. As to the kind of experiment: ARE luciferase reporter cell-based assay.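 Note: luciferase signal tracks Nrf2 activation of the ARE once compounds disrupt KEAP1-Nrf2 binding, read with One-Glo reagent, DMSO serving as low control.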 As to conditions: Homo sapiens, HEK293, 24 h, average of results obtained. On the technique in general: A reporter such as luciferase makes a cellular process visible.

Sequence of Kelch domain of human KEAP1 (321-624 aa) (Q14145 321-624): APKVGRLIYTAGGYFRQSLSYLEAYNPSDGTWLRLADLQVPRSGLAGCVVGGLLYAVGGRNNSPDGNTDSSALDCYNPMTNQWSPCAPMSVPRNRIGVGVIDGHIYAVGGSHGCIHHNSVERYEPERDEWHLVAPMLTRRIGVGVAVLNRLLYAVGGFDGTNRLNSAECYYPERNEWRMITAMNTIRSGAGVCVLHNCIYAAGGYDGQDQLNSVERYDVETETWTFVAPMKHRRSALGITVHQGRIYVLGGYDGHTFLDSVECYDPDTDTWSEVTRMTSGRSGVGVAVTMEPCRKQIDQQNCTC

On to `Cc1ccc([C@@H](CC(=O)O)c2ccc3c(nnn3C3CC3)c2C)cc1CN1C[C@@H]2COCCN2c2ncccc2S1(=O)=O` (single isomer, unassigned) [Example 25, (*R)-3-(1-Cyclopropyl-4-methyl-1H-benzo[d][1,2,3]triazol-5-yl)-3-(3-(((*R)-5,5-dioxido-7a,8,10,11-tetrahydro-[1,4]oxazino[3,4-d]pyrido[2,3-f][1,2,5]thiadiazepin-6(7H)-yl)methyl)-4-methylphenyl)propanoic Acid], for which, in assay [1], the Kd is 2.12 nM. In addition, in assay [2], the EC50 was found to be 21 nM.

With `Cc1ccc([C@H](CC(=O)O)c2ccn3c(C(F)(F)F)nnc3c2C)cc1CN1CC2(COC2)Oc2ccccc2S1(=O)=O` (single isomer, unassigned) [Example 26, (*S)-3-(3-((1,1-Dioxidospiro[benzo[b][1,4,5]oxathiazepine-4,3′-oxetan]-2(3H)-yl)methyl)-4-methylphenyl)-3-(8-methyl-3-(trifluoromethyl)-[1,2,4]triazolo[4,3-a]pyridin-7-yl)propanoic Acid], the Kd in assay [1] stood at 0.174 nM. Moreover, the EC50 in assay [2] worked out at 32 nM.

For the compound `Cc1ccc([C@@H](CC(=O)O)c2ccn3c(C(F)F)nnc3c2C)cc1CN1C[C@@H]2CCCCN2c2ncc(C#N)cc2S1(=O)=O` (single isomer, unassigned) [Example 29, (*R)-3-(3-(((*S)-3-Cyano-5,5-dioxido-7,7a,8,9,10,11-hexahydro-6H-dipyrido[2,1-d:2′,3′-f][1,2,5]thiadiazepin-6-yl)methyl)-4-methylphenyl)-3-(3-(difluoromethyl)-8-methyl-[1,2,4]triazolo[4,3-a]pyridin-7-yl)propanoic Acid], the Kd in assay [1] is less than 1 nM. For the same compound, in assay [2], the response was half-maximal at 50.9 nM (EC50).

Consider `Cc1ccc([C@@H](CC(=O)O)c2ccn3c(C(F)F)nnc3c2C)cc1CN1C[C@H]2CCCCN2c2ncc(C#N)cc2S1(=O)=O` (single isomer, unassigned) [Example 30, (*R)-3-(3-(((*R)-3-Cyano-5,5-dioxido-7,7a,8,9,10,11-hexahydro-6H-dipyrido[2,1-d:2′,3′-f][1,2,5]thiadiazepin-6-yl)methyl)-4-methylphenyl)-3-(3-(difluoromethyl)-8-methyl-[1,2,4]triazolo[4,3-a]pyridin-7-yl)propanoic Acid], for which the equilibrium dissociation constant (Kd) in assay [1] was less than 1 nM. The compound also registered an EC50 in assay [2] of 73.7 nM.

In the case of `Cc1ccc([C@@H](CC(=O)O)c2ccn3c(C(F)(F)F)nnc3c2C)nc1CN1C[C@@H]2CCCCN2c2ncc(C#N)cc2S1(=O)=O` (single isomer, unassigned) [Example 34, (*S)-3-(6-(((*S)-3-Cyano-5,5-dioxido-7,7a,8,9,10,11-hexahydro-6H-dipyrido[2,1-d:2′,3′-f][1,2,5]thiadiazepin-6-yl)methyl)-5-methylpyridin-2-yl)-3-(8-methyl-3-(trifluoromethyl)-[1,2,4]triazolo[4,3-a]pyridin-7-yl)propanoic Acid], the Kd in assay [1] was less than 1 nM. Also, the EC50 in assay [2] was 119 nM.

Consider `Cc1ccc([C@@H](CC(=O)O)c2ccn3c(C(F)(F)F)nnc3c2C)nc1CN1C[C@H]2CCCCN2c2ncc(C#N)cc2S1(=O)=O` (single isomer, unassigned) [Example 35, (*S)-3-(6-(((*R)-3-Cyano-5,5-dioxido-7,7a,8,9,10,11-hexahydro-6H-dipyrido[2,1-d:2′,3′-f][1,2,5]thiadiazepin-6-yl)methyl)-5-methylpyridin-2-yl)-3-(8-methyl-3-(trifluoromethyl)-[1,2,4]triazolo[4,3-a]pyridin-7-yl)propanoic Acid], for which the Kd in assay [1] was less than 1 nM. The compound further displayed a concentration for a half-maximal effect (EC50) in assay [2] of 65.7 nM.

Regarding `Cc1ccc([C@H](CC(=O)O)c2ccn3c(C(F)(F)F)nnc3c2C)nc1CN1C[C@H]2CCCCN2c2ncc(C#N)cc2S1(=O)=O` (single isomer, unassigned) [Example 36, (*R)-3-(6-(((*R)-3-Cyano-5,5-dioxido-7,7a,8,9,10,11-hexahydro-6H-dipyrido[2,1-d:2′,3′-f][1,2,5]thiadiazepin-6-yl)methyl)-5-methylpyridin-2-yl)-3-(8-methyl-3-(trifluoromethyl)-[1,2,4]triazolo[4,3-a]pyridin-7-yl)propanoic Acid], the Kd in assay [1] was less than 1 nM. The compound further showed an EC50 in assay [2] of 15.2 nM.

For `Cc1ccc([C@H](CC(=O)O)c2ccn3c(C(F)(F)F)nnc3c2C)nc1CN1C[C@@H]2CCCCN2c2ncc(C#N)cc2S1(=O)=O` (single isomer, unassigned) [Example 37, (*R)-3-(6-(((*S)-3-Cyano-5,5-dioxido-7,7a,8,9,10,11-hexahydro-6H-dipyrido[2,1-d:2′,3′-f][1,2,5]thiadiazepin-6-yl)methyl)-5-methylpyridin-2-yl)-3-(8-methyl-3-(trifluoromethyl)-[1,2,4]triazolo[4,3-a]pyridin-7-yl)propanoic Acid], the Kd in assay [1] is less than 1 nM. Also, in assay [2], the EC50 was found to be 25.7 nM.

`Cc1ccc([C@@H](c2ccn3c(C(F)(F)F)nnc3c2C)C(C)(C)C(=O)O)nc1CN1CC2(CCOCC2)Oc2ncccc2S1(=O)=O` (single isomer, unassigned) [Example 38, (*S)-3-(6-((1′,1′-Dioxido-2,3,5,6-tetrahydrospiro[pyran-4,4′-pyrido[2,3-b][1,4,5]oxathiazepin]-2′(3′H)-yl)methyl)-5-methylpyridin-2-yl)-2,2-dimethyl-3-(8-methyl-3-(trifluoromethyl)-[1,2,4]triazolo[4,3-a]pyridin-7-yl)propanoic Acid]: in assay [1], the Kd is less than 1 nM. The compound further showed an EC50 in assay [2] of 7.2 nM.

Consider `Cc1ccc([C@H](c2ccn3c(C(F)(F)F)nnc3c2C)C(C)(C)C(=O)O)nc1CN1CC2(CCOCC2)Oc2ncccc2S1(=O)=O` (single isomer, unassigned) [Example 39, (*R)-3-(6-((1′,1′-Dioxido-2,3,5,6-tetrahydrospiro[pyran-4,4′-pyrido[2,3-b][1,4,5]oxathiazepin]-2′(3′H)-yl)methyl)-5-methylpyridin-2-yl)-2,2-dimethyl-3-(8-methyl-3-(trifluoromethyl)-[1,2,4]triazolo[4,3-a]pyridin-7-yl)propanoic Acid], for which the Kd in assay [1] came to 4250 nM. In assay [2], this compound showed an EC50 of 1260 nM.

As for `Cc1ccc([C@@H](c2ccn3c(C4CC4)nnc3c2C)C(C)(C)C(=O)O)cc1CN1CC2(CCOCC2)Oc2ncccc2S1(=O)=O` (single isomer, unassigned) [Example 41, (*S)-3-(3-Cyclopropyl-8-methyl-[1,2,4]triazolo[4,3-a]pyridin-7-yl)-3-(3-((1′,1′-dioxido-2,3,5,6-tetrahydrospiro[pyran-4,4′-pyrido[2,3-b][1,4,5]oxathiazepin]-2′(3′H)-yl)methyl)-4-methylphenyl)-2,2-dimethylpropanoic Acid], in assay [1], the dissociation constant (Kd) was less than 1 nM. The compound further came in with a concentration giving a half-maximal response (EC50) in assay [2] of 46 nM.

`Cc1ccc([C@H](c2ccn3c(C4CC4)nnc3c2C)C(C)(C)C(=O)O)cc1CN1CC2(CCOCC2)Oc2ncccc2S1(=O)=O` (single isomer, unassigned) [Example 42, (*R)-3-(3-Cyclopropyl-8-methyl-[1,2,4]triazolo[4,3-a]pyridin-7-yl)-3-(3-((1′,1′-dioxido-2,3,5,6-tetrahydrospiro[pyran-4,4′-pyrido[2,3-b][1,4,5]oxathiazepin]-2′(3′H)-yl)methyl)-4-methylphenyl)-2,2-dimethylpropanoic Acid]: the Kd in assay [1] was 7540 nM. In addition, the EC50 in assay [2] worked out at 3460 nM.

`Cc1ncc([C@H](c2ccc3c(nnn3C3CC3)c2C)C(C)(C)C(=O)O)cc1CN1CC2(CCOCC2)Oc2ncccc2S1(=O)=O` (single isomer, unassigned) [Example 44, (*S)-3-(1-Cyclopropyl-4-methyl-1H-benzo[d][1,2,3]triazol-5-yl)-3-(5-((1′,1′-dioxido-2,3,5,6-tetrahydrospiro[pyran-4,4′-pyrido[2,3-b][1,4,5]oxathiazepin]-2′(3′H)-yl)methyl)-6-methylpyridin-3-yl)-2,2-dimethylpropanoic Acid]: the Kd in assay [1] was less than 1 nM. The compound further had an EC50 in assay [2] of 54.3 nM.

As for `Cc1ncc([C@@H](c2ccc3c(nnn3C3CC3)c2C)C(C)(C)C(=O)O)cc1CN1CC2(CCOCC2)Oc2ncccc2S1(=O)=O` (single isomer, unassigned) [Example 45, (*R)-3-(1-Cyclopropyl-4-methyl-1H-benzo[d][1,2,3]triazol-5-yl)-3-(5-((1′,1′-dioxido-2,3,5,6-tetrahydrospiro[pyran-4,4′-pyrido[2,3-b][1,4,5]oxathiazepin]-2′(3′H)-yl)methyl)-6-methylpyridin-3-yl)-2,2-dimethylpropanoic Acid], the dissociation constant (Kd) in assay [1] is 42600 nM. Besides, in assay [2], the EC50 came to 6560 nM.

As to `Cc1ccc([C@@H](c2ccn3c(C(F)(F)F)nnc3c2C)C(C)(C)C(=O)O)cc1CN1CC2(CCOCC2)Oc2nc(OCCN3CCOCC3)ccc2S1(=O)=O` (single isomer, unassigned) [Example 47, (*S)-2,2-Dimethyl-3-(4-methyl-3-((7′-(2-morpholinoethoxy)-1′,1′-dioxido-2,3,5,6-tetrahydrospiro[pyran-4,4′-pyrido[2,3-b][1,4,5]oxathiazepin]-2′(3′H)-yl)methyl)phenyl)-3-(8-methyl-3-trifluoromethyl)-[1,2,4]triazolo[4,3-a]pyridine-7-yl)propanoic Acid], the Kd in assay [1] was less than 1 nM. The compound further gave an EC50 in assay [2] of 17.9 nM.

As to `Cc1ccc([C@H](c2ccn3c(C(F)(F)F)nnc3c2C)C(C)(C)C(=O)O)cc1CN1CC2(CCOCC2)Oc2nc(OCCN3CCOCC3)ccc2S1(=O)=O` (single isomer, unassigned) [Example 48, (*R)-2,2-Dimethyl-3-(4-methyl-3-((7′-(2-morpholinoethoxy)-1′,1′-dioxido-2,3,5,6-tetrahydrospiro[pyran-4,4′-pyrido[2,3-b][1,4,5]oxathiazepin]-2′(3′H)-yl)methyl)phenyl)-3-(8-methyl-3-trifluoromethyl)-[1,2,4]triazolo[4,3-a]pyridine-7-yl)propanoic Acid], the dissociation constant Kd in assay [1] came out at 820 nM. It took 6270 nM to reach a half-maximal effect in assay [2] (EC50).

One may read the Kd as the constant that tells how readily two partners part at equilibrium. The EC50 is the midpoint of the concentration-response curve.
